According to patent US20100273806A1, “TETRAHYDROCYCLOPENTA[B]INDOL-3-YL CARBOXYLIC ACID DERIVATIVES USEFUL IN THE TREATMENT OF AUTOIMMUNE AND INFLAMMATORY DISORDERS” (ARENA PHARMACEUTICALS, INC., priority 2007, published 2010):
Entries after “also recorded” stand apart in the source; their conditions may differ.

Assays:
[1] = target: T1, S1P1 receptor (Homo sapiens, UniProt P21453); experiment: HTRF assay for direct cAMP measurement (S1P1 receptor agonists); format: cell-based; conditions: recombinant CHO-K1 cells stably transfected with S1P1 receptor; decrease of cAMP concentration
T1 construct: expressed in transfected cells; host or cells: CHO-K1 (ATCC CCL-61), stably transfected
T1 sequence (P21453 whole entry): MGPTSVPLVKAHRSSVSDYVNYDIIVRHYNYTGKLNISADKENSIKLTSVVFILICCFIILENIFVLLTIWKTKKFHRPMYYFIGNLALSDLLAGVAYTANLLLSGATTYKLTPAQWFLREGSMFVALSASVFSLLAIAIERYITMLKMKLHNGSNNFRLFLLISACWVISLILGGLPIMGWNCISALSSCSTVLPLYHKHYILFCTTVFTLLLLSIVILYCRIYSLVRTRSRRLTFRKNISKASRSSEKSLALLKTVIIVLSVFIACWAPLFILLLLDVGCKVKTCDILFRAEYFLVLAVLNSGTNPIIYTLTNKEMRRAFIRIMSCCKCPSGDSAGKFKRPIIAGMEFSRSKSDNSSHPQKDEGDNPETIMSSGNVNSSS
Description: Compounds were screened for agonists of S1P1 receptor (e.g., human S1P1 receptor) using HTRF® assay for direct cAMP measurement (Gabriel et al, ASSAY and Drug Development Technologies, 1:291-303, 2003) and recombinant CHO-K1 cells stably transfected with S1P1 receptor. CHO-K1 cells were obtained from ATCC® (Manassas, Va.; Catalog #CCL-61). An agonist of S1P1 receptor was detected in HTRF® assay for direct cAMP measurement as a compound which decreased cAMP concentration. HTRF® assay also was used to determine EC50 values for S1P1 receptor agonists.
Principle of the assay: HTRF® assay kit was purchased from Cisbio-US, Inc. (Bedford, Mass.; Catalog #62AM4PEC). The HTRF® assay supported by the kit is a competitive immunoassay between endogenous cAMP produced by the CHO-K1 cells and tracer cAMP labeled with the dye d2. The tracer binding is visualized by a monoclonal anti-cAMP antibody labeled with Cryptate. The specific signal (i.e., fluorescence resonance energy transfer, FRET) is inversely proportional to the concentration of unlabeled cAMP in the standard or sample.
The fluorescence ratio of the samples (test compound or compound buffer) was calculated and used to deduce respective cAMP concentrations by reference to the cAMP standard curve.
Setup of the assay: HTRF® assay was carried out using a two-step protocol essentially according to the kit manufacturer's instructions, in 20 μL total volume per well in 384-well plate format (ProxiPlates; PerkinElmer, Fremont, Calif.; catalog #6008280). To each of the experimental wells was transferred 1500 recombinant CHO-K1 cells in 5 μL phosphate buffered saline containing calcium chloride and magnesium chloride (“PBS+”; Invitrogen, Carlsbad, Calif.; catalog #14040) supplemented with IBMX (250 μM) and rolipram (20 μM) (phosphodiesterase inhibitors; Sigma-Aldrich, St. Louis, Mo.; catalog #I5879 and catalog #R6520, respectively), followed by test compound in 5 μL compound buffer (PBS+ supplemented with […] (water-soluble forskolin derivative; SignaGen Laboratories, Gaithersburg, Md.; catalog #PKI-NKH477-010)) or 5 μL compound buffer. The plate was then incubated at room temperature for 1 hour. To each well was then added 5 μL cAMP-d2 conjugate in lysis buffer and 5 μL Cryptate conjugate in lysis buffer according to the kit manufacturer's instructions. The plate was then further incubated at room temperature for 1 hour, after which the assay plate was read.
Assay readout: HTRF® readout was accomplished using a PHERAstar (BMG LABTECH Inc., Durham, N.C.) or EnVision™ (PerkinElmer, Fremont Calif.) microplate reader.

[2] = target: S1P3 receptor (Homo sapiens, UniProt Q99500); experiment: Cellular/functional Ca2+ assay for agonist activity on S1P3 receptor; format: cell-based; design: a human neuroblastoma cell line which endogenously expresses S1P3 (predominantly); endogenous in cells; conditions: human neuroblastoma cell line endogenously expressing S1P3; FIG. 1
Sequence of S1P3 receptor (Q99500 whole entry): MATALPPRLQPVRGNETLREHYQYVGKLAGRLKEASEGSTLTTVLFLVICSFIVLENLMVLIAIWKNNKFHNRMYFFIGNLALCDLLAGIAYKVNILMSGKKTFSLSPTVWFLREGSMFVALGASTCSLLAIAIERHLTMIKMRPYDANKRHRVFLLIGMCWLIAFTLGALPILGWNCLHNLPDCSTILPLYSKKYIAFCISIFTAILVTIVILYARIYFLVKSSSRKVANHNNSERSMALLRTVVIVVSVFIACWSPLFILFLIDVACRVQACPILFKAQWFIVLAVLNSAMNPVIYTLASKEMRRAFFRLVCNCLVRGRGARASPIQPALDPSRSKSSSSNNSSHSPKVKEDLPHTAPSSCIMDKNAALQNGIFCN
Description: Of these, S1P3 and S1P2 receptors respond to agonist, such as S1P, with an intracellular calcium increase. […] Such an assay can be performed commercially, e.g. by Caliper LifeSciences (Hopkinton, Mass.).
Assay: The human neuroblastoma cells were washed and resuspended in physiological buffer. The cells were then loaded with dye that measures intracellular calcium. S1P was used as a reference agonist. Compound 52 was included in the assay as a test compound. After addition of S1P or Compound 52, fluorescence was measured at 485 nm excitation/525 nm emission every 2 s for at least 60 s. Calcium ionophore A23187 was then added as an internal positive control.

[3] = system: Male BALB/c mice; experiment: Mouse peripheral lymphocyte lowering (PLL) assay; format: in vivo; conditions: 1 mg/kg i.v. in 100% PEG400, 5 h post dose, compared with vehicle; *P<0.05; FIG. 2
Method: Animals: Male BALB/c mice (6 to 7 weeks of age at start of study) (Charles River Laboratories, Wilmington, Mass.) were housed four per cage and maintained in a humidity- (40-60%) and temperature- (68-72° F.) controlled facility on a 12 h:12 h light/dark cycle (lights on at 6:30 am) with free access to food (Harlan Teklad, Orange, Calif., Rodent Diet 8604) and water. Mice were allowed one week of habituation to the animal facility before testing.
PLL Assay: Mice were administered via i.v. one of the following: saline, vehicle (100% PEG400) or 1 mg/kg Compound 52 in vehicle, in a total volume of 5 ml/kg. Peripheral blood samples were collected at 5 h post dose. The mice were anesthetized with isoflurane and bled retro-orbitally (300 μL) into 1.5 ml EDTA tubes. A complete cell count (CBC) (including lymphocyte count) was obtained using CELL-DYN® 3700 (Abbott Laboratories, Abbott Park, Ill.). Results are presented in FIG. 2, in which peripheral blood lymphocyte (PBL) count is shown for the 5 hour group.

EC50 [1] [µM]	SMILES	agonist activity on S1P3 receptor (intracellular calcium) [2]	peripheral blood lymphocyte (PBL) count / peripheral lymphocyte lowering [3]
0.083	O=C(O)CC1CCc2c1[nH]c1ccc(-c3noc(-c4ccc(OCC(F)(F)F)nc4)n3)cc21 (stereo not shown) [Compound 47, 2-(7-(5-(6-(2,2,2-Trifluoroethoxy)pyridin-3-yl)-1,2,4-oxadiazol-3-yl)-1,2,3,4-tetrahydrocyclopenta[b]indol-3-yl)acetic Acid]	–	–
0.094	COc1ccc(-c2nc(-c3ccc4[nH]c5c(c4c3)CCC5CC(=O)O)no2)cc1C(F)(F)F (stereo not shown) [Compound 42, 2-(7-(5-(4-Methoxy-3-(trifluoromethyl)phenyl)-1,2,4-oxadiazol-3-yl)-1,2,3,4-tetrahydrocyclopenta[b]indol-3-yl)acetic Acid]	–	–

The next lines start with the compound.

SMILES	EC50 [1] [µM]	agonist activity on S1P3 receptor (intracellular calcium) [2]	peripheral blood lymphocyte (PBL) count / peripheral lymphocyte lowering [3]
N#Cc1cc(-c2nc(-c3ccc4[nH]c5c(c4c3)CCC5CC(=O)O)no2)ccc1OC1CCCC1 (single isomer, unassigned) [Compound 19, 2-(7-(5-(3-Cyano-4-(cyclopentyloxy)phenyl)-1,2,4-oxadiazol-3-yl)-1,2,3,4-tetrahydrocyclopenta[b]indol-3-yl)acetic Acid]	0.0188	–	–
CNc1ccc2oc(C[C@H]3O[C@@]4(CC[C@H]3C)O[C@H]([C@H](C)C(=O)c3ccc[nH]3)[C@H](C)C[C@H]4C)nc2c1C(=O)O [Compound A23187, reference compound]	–	pronounced agonist activity	–
CCOc1ncc(-c2nc(-c3ccc4[nH]c5c(c4c3)CCC5CC(=O)O)no2)cc1C (stereo not shown) [Compound 62, 2-(7-(5-(6-Ethoxy-5-methylpyridin-3-yl)-1,2,4-oxadiazol-3-yl)-1,2,3,4-tetrahydrocyclopenta[b]indol-3-yl)acetic Acid]	0.21	–	–
N#Cc1cc(OCCF)cc(-c2nc(-c3ccc4[nH]c5c(c4c3)CCC5CC(=O)O)no2)c1 (stereo not shown) [Compound 32, 2-(7-(5-(3-Cyano-5-(2-fluoroethoxy)phenyl)-1,2,4-oxadiazol-3-yl)-1,2,3,4-tetrahydrocyclopenta[b]indol-3-yl)acetic Acid]	0.043	–	–
NC(=O)c1cc(OC(F)(F)F)cc(-c2nc(-c3ccc4[nH]c5c(c4c3)CCC5CC(=O)O)no2)c1 (stereo not shown) [Compound 51, 2-(7-(5-(3-Carbamoyl-5-(trifluoromethoxy)phenyl)-1,2,4-oxadiazol-3-yl)-1,2,3,4-tetrahydrocyclopenta[b]indol-3-yl)acetic Acid]	0.23	–	–
O=C(O)CC1CCc2c1[nH]c1ccc(-c3noc(-c4cc(C(F)(F)F)cc(C(F)(F)F)c4)n3)cc21 (stereo not shown) [Compound 52, 2-(7-(5-(3,5-Bis(trifluoromethyl)phenyl)-1,2,4-oxadiazol-3-yl)-1,2,3,4-tetrahydrocyclopenta[b]indol-3-yl)acetic Acid]	0.0759	substantially little to no activity; also recorded: no or substantially no agonist activity	exhibited activity for inducing peripheral lymphocyte lowering
